Measured values published in publication PMC10176470, “Engaging a Non-catalytic Cysteine Residue Drives Potent and Selective Inhibition of Caspase-6” (Journal of the American Chemical Society, 2023).

Legend:
Format in all cases: cell-based
[1] = target: T1, proteins of HEK293T cells transiently overexpressing caspase-6 (Homo sapiens, UniProt P40926); details: protein MDH2 (P40926)
T1 sequence (P40926 25-338): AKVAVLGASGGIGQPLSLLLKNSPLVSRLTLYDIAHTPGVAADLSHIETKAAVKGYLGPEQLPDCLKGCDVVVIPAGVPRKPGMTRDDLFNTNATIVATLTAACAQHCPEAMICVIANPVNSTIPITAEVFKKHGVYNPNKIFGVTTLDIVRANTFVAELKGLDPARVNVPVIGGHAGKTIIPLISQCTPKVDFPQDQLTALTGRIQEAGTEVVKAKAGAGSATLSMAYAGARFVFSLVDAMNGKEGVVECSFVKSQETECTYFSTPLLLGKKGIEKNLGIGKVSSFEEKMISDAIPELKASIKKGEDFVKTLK

[2] = target: proteins of HEK293T cells transiently overexpressing caspase-6 (Homo sapiens, UniProt P04406); details: exp_ref Probe; protein GAPDH (P04406); analysis C6
[3] = target: T2, proteins of HEK293T cells transiently overexpressing caspase-6 (Homo sapiens, UniProt Q13162)
T2 sequence (Q13162 38-271): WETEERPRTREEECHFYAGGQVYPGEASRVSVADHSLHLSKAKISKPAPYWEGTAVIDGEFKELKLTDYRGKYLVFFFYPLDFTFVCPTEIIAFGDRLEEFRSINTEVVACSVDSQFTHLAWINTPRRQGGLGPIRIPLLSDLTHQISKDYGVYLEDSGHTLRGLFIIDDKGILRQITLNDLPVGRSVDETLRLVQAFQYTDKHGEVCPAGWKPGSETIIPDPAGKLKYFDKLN

[4] = target: proteins of HEK293T cells transiently overexpressing caspase-6 (Homo sapiens, UniProt P62633); details: exp_ref Probe; protein CNBP (P62633); analysis C6
Sequence of proteins of HEK293T cells transiently overexpressing caspase-6 (Homo sapiens, UniProt P62633) (P62633 whole entry): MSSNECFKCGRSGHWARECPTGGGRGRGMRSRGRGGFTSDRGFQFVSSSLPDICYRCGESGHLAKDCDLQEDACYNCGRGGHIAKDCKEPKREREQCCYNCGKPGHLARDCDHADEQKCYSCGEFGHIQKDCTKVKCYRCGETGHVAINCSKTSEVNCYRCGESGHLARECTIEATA

[5] = target: proteins of HEK293T cells transiently overexpressing caspase-6 (Homo sapiens, UniProt Q8NBS9); details: exp_ref Probe; protein TXNDC5 (Q8NBS9); analysis C6
Sequence of proteins of HEK293T cells transiently overexpressing caspase-6 (Homo sapiens, UniProt Q8NBS9) (Q8NBS9 33-432): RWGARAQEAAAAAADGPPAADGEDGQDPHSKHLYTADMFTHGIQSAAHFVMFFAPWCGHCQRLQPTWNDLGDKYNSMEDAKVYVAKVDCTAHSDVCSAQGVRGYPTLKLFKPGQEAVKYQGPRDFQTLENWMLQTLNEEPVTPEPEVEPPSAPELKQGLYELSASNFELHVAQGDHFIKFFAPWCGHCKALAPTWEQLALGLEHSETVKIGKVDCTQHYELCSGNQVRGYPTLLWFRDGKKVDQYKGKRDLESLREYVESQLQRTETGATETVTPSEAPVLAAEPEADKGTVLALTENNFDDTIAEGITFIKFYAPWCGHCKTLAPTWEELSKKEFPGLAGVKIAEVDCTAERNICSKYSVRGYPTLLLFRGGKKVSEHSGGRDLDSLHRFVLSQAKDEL

[6] = target: proteins of HEK293T cells transiently overexpressing caspase-6 (Homo sapiens, UniProt O95373); details: Probe; protein IPO7 O95373
Sequence of proteins of HEK293T cells transiently overexpressing caspase-6 (Homo sapiens, UniProt O95373) (O95373 whole entry): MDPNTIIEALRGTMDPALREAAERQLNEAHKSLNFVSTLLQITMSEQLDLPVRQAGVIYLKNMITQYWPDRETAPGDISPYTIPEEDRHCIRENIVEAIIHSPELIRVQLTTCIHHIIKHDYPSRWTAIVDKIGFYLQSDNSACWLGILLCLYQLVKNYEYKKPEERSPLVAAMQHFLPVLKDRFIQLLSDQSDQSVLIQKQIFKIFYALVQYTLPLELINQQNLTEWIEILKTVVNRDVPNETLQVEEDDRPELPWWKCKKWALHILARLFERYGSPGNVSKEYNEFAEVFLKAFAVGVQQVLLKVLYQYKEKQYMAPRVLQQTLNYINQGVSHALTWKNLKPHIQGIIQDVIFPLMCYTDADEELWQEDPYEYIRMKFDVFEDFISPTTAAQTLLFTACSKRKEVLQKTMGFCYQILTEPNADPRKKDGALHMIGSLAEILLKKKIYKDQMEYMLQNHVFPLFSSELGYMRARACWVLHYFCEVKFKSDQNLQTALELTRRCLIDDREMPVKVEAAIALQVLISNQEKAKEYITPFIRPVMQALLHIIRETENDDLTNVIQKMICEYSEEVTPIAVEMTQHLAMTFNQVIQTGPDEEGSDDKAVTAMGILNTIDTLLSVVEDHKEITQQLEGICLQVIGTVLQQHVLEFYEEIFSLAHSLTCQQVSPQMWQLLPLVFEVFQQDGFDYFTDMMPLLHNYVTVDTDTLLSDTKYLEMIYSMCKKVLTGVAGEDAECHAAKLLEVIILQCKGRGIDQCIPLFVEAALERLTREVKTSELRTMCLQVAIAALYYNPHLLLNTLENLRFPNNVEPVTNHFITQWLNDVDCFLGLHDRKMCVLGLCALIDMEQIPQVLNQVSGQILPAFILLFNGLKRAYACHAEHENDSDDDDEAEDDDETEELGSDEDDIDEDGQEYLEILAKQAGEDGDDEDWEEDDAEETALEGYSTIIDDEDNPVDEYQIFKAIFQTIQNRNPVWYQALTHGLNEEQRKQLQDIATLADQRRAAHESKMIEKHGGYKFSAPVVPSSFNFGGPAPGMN

[7] = target: T3, proteins of HEK293T cells transiently overexpressing caspase-6 (Homo sapiens, UniProt P04075); details: protein ALDOA (P04075)
T3 sequence (P04075 1-364): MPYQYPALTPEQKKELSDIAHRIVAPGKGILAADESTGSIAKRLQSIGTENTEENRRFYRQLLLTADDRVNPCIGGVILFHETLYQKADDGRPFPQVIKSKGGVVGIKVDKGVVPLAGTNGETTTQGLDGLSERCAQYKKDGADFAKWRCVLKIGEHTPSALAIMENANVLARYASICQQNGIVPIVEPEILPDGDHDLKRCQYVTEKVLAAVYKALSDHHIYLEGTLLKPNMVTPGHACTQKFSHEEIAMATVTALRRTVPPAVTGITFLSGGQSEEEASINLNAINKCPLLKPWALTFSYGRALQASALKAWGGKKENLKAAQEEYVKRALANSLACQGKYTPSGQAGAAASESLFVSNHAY

[8] = target: proteins of HEK293T cells transiently overexpressing caspase-6 (Homo sapiens, UniProt P61619); details: exp_ref Probe; protein SEC61A1 (P61619); analysis C6
Sequence of proteins of HEK293T cells transiently overexpressing caspase-6 (Homo sapiens, UniProt P61619) (P61619 whole entry): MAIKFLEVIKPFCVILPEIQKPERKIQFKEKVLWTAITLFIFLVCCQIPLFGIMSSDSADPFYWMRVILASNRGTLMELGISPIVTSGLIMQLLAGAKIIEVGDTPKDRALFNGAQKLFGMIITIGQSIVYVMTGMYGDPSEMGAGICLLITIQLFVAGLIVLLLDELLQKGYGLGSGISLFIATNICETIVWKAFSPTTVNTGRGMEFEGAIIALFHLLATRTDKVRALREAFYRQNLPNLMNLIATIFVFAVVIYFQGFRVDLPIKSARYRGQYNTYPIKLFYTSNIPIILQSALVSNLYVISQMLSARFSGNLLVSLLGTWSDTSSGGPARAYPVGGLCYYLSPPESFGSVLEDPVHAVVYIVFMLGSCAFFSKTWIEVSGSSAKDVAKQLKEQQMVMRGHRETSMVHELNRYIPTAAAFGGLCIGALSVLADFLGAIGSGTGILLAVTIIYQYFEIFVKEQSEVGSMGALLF

[9] = target: proteins of HEK293T cells transiently overexpressing caspase-6 (Homo sapiens, UniProt Q9NTK5); details: protein OLA1 (Q9NTK5), analysis C6
[10] = target: proteins of HEK293T cells transiently overexpressing caspase-6 (Homo sapiens, UniProt Q9Y265); details: Probe; protein RUVBL1 Q9Y265
Sequence of proteins of HEK293T cells transiently overexpressing caspase-6 (Homo sapiens, UniProt Q9Y265) (Q9Y265 whole entry): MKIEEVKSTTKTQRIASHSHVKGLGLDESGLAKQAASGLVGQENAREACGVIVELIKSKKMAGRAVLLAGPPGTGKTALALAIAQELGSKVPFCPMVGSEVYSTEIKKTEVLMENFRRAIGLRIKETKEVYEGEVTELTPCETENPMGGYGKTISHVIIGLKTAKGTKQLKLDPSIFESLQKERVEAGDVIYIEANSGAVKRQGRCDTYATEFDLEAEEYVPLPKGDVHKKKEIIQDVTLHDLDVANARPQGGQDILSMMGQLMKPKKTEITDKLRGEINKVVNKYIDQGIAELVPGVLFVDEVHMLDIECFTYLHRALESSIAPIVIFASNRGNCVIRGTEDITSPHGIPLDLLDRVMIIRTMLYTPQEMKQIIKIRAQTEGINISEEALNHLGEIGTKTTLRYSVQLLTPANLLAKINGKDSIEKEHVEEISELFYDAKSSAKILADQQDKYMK

[11] = target: proteins of HEK293T cells transiently overexpressing caspase-6 (Homo sapiens, UniProt Q92841); details: exp_ref Probe; protein DDX17 (Q92841); analysis C6
Sequence of proteins of HEK293T cells transiently overexpressing caspase-6 (Homo sapiens, UniProt Q92841) (Q92841 whole entry): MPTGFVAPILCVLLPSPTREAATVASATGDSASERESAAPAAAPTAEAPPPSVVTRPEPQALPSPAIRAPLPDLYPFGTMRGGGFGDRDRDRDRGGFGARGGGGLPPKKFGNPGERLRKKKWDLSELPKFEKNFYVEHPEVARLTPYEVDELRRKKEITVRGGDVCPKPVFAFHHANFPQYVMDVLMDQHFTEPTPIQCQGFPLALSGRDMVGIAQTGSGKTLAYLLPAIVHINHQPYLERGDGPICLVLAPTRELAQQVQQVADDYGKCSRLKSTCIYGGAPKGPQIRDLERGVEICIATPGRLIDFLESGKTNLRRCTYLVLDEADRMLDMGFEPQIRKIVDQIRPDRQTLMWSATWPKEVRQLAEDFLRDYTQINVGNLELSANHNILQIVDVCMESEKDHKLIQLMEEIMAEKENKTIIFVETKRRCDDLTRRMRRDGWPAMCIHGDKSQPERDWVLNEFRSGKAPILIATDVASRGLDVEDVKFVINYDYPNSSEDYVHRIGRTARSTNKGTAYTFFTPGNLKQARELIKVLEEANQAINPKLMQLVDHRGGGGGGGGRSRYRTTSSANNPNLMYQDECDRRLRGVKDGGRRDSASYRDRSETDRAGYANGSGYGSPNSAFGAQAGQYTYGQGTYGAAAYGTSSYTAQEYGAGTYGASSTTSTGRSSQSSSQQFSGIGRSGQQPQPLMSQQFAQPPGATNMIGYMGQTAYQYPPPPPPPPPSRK

[12] = target: proteins of HEK293T cells transiently overexpressing caspase-6 (Homo sapiens, UniProt Q14980); details: exp_ref Probe; protein NUMA1 (Q14980); analysis C6
[13] = target: proteins of HEK293T cells transiently overexpressing caspase-6 (Homo sapiens, UniProt P02768); details: Probe; protein ALB P02768
[14] = target: proteins of HEK293T cells transiently overexpressing caspase-6 (Homo sapiens, UniProt P43243); details: exp_ref Probe; protein MATR3 (P43243); analysis C6
Sequence of proteins of HEK293T cells transiently overexpressing caspase-6 (Homo sapiens, UniProt P43243) (P43243 whole entry): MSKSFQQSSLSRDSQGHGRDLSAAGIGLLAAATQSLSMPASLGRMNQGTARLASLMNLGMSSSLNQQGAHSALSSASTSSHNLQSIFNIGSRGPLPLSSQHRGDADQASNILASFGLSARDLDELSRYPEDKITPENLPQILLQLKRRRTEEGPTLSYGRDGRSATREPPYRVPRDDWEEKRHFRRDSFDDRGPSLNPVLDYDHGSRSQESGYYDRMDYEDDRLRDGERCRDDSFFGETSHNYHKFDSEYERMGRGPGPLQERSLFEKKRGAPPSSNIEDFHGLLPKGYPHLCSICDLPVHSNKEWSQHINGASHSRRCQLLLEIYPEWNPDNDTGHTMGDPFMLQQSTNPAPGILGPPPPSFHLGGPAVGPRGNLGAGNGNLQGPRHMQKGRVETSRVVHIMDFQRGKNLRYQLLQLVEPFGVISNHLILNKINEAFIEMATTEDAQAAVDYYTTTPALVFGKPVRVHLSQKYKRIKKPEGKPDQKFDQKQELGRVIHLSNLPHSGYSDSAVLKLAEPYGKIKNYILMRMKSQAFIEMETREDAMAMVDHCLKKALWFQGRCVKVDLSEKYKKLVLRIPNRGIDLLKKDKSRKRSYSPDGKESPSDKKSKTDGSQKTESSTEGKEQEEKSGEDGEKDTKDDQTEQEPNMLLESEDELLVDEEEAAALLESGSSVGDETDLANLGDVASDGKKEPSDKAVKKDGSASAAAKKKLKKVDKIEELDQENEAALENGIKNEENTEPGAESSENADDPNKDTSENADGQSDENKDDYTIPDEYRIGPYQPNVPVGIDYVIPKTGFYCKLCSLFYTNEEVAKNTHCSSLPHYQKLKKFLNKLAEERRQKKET

[15] = target: proteins of HEK293T cells transiently overexpressing caspase-6 (Homo sapiens, UniProt P20700); details: exp_ref Probe; protein LMNB1 (P20700); analysis C6
[16] = target: proteins of HEK293T cells transiently overexpressing caspase-6 (Homo sapiens, UniProt P08670)
Sequence of proteins of HEK293T cells transiently overexpressing caspase-6 (Homo sapiens, UniProt P08670) (P08670 whole entry): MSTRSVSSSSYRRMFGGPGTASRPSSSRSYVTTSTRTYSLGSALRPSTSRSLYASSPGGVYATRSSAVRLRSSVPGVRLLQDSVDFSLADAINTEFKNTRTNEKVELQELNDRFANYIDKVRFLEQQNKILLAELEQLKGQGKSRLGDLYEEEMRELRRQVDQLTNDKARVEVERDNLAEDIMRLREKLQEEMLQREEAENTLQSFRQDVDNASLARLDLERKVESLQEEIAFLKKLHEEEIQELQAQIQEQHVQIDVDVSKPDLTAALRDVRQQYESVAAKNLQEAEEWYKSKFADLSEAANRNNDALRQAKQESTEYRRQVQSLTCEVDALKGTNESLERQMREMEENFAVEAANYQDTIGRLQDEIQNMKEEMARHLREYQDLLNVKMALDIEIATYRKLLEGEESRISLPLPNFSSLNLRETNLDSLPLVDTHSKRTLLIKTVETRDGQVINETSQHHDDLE

[17] = target: proteins of HEK293T cells transiently overexpressing caspase-6 (Homo sapiens, UniProt Q9UBE0); details: protein SAE1 (Q9UBE0); exp_ref Probe; analysis C6
Sequence of proteins of HEK293T cells transiently overexpressing caspase-6 (Homo sapiens, UniProt Q9UBE0) (Q9UBE0 whole entry): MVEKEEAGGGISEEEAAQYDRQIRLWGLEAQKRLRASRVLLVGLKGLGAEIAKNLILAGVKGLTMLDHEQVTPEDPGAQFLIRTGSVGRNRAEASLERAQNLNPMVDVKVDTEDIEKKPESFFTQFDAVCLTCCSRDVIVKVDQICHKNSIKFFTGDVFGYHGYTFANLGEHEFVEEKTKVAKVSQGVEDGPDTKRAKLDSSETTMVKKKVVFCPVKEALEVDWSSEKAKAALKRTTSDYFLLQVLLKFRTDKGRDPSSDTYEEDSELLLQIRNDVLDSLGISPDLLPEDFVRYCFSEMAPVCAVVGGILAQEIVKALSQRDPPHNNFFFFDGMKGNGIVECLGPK

[18] = target: proteins of HEK293T cells transiently overexpressing caspase-6 (Homo sapiens, UniProt O43390); details: exp_ref Probe; protein HNRNPR (O43390); analysis C6

For C#CCOc1ccc([C@@H]2C[C@@H](C(=O)Nc3ccc(OC(F)(F)F)cc3)CN(S(=O)(=O)C=C)C2)cc1 (relative stereo) [13-t], the enrich.exp.med ([1]; exp_ref Probe, analysis C6) was 0.3462, the enrich.exp.med.lin [1] was 1.2712 and the enrich.exp.med.log2 [1] was 0.3462. For the same compound, the enrich.exp.med [2] was 0.4718, the enrich.exp.med ([3]; Probe, protein PRDX4 Q13162) was -1.846 and the enrich.exp.med.lin ([3]; protein PRDX4 (Q13162)) was 0.2781. The enrich.exp.med.log2 ([3]; protein PRDX4 (Q13162)) was -1.846, the enrich.exp.med [4] was -0.4177 and the enrich.exp.med [5] was 0.5284. It also gave an enrich.exp.med [6] of -0.5106, an enrich.exp.med ([7]; exp_ref Probe, analysis C6) of 0.8107 and an enrich.exp.med.lin [7] of 1.754. For the same compound, the enrich.exp.med.log2 [7] was 0.8107, the enrich.exp.med [8] was 0.5807 and the enrich.exp.med.lin ([9]; Expt Probe) was 6.528. It also gave an enrich.exp.med.log2 ([9]; Expt Probe) of 2.707, an enrich.exp.med ([9]; exp_ref Probe) of 2.707 and an enrich.exp.med [10] of -0.45. It also gave an enrich.exp.med [11] of 0.3365, an enrich.exp.med [12] of -0.2955 and an enrich.exp.med [13] of -8.362. For the same compound, the enrich.exp.med [14] was 0.5323, the enrich.exp.med [15] was -0.2652 and the enrich.exp.med ([16]; Probe, protein VIM P08670) was -1.006. For the same compound, the enrich.exp.med.lin ([16]; protein VIM (P08670)) was 0.4978, the enrich.exp.med.log2 ([16]; protein VIM (P08670)) was -1.006 and the enrich.exp.med [17] was 1.338. It also gave an enrich.exp.med [18] of 0.1675.
